System: mitochondrial Na+/Ca2+ exchanger
Assay: fura-2 [Ca2+]i plateau after depolarization in intact neurons
Format: cell-based, Aquarana catesbeiana

SMILES: O=C1CSC(c2ccccc2Cl)c2cc(Cl)ccc2N1 (stereo not shown) [CGP, CGP 37157]
- IC50: ~560 nM
